Data published in US20260206755A1, “COMPOUNDS AND COMPOSITIONS HAVING KNOCK-DOWN OR BLOOD FEED INHIBITION ACTIVITY AGAINST INSECT PESTS” (priority 2017, published 2026).
Where two headings read alike, the source gives them in different places.

Tested on: Anopheles stephensi
Test: Anopheles stephensi treated well plate contact test: knockdown and mortality
Type: in vivo
Details: for mortality at 0.2 ppm / pest or weed control at 0.2 ppm / mortality at 2 ppm / pest or weed control at 2 ppm / mortality at 20 ppm / pest or weed control at 20 ppm / mortality at 200 ppm / pest or weed control at 200 ppm: Anopheles stephensi; for mortality at 0.2 ppm / pest or weed control at 0.2 ppm / mortality at 2 ppm / pest or weed control at 2 ppm / mortality at 20 ppm / pest or weed control at 20 ppm / mortality at 200 ppm / pest or weed control at 200 ppm / mortality % 24, without TFNA-AM / mortality % 48, without TFNA-AM / Knock Down, without TFNA-AM: without TFNA-AM; for pest or weed control at 0.2 ppm / pest or weed control at 2 ppm / pest or weed control at 20 ppm / pest or weed control at 200 ppm / Knock Down, with TFNA-AM / Knock Down, without TFNA-AM: knockdown after 1 hour; for pest or weed control at 0.2 ppm / pest or weed control at 2 ppm / pest or weed control at 20 ppm / pest or weed control at 200 ppm: read-out: Knock Down, without TFNA-AM
Method in brief: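 Well surfaces coated with ethanol solution of compound at a defined concentration, alone or with 2 ppm TFNA-AM, then dried. Five non-blood-fed 2–5-day-old adult females per well, fed 10% sucrose; knockdown scored at 1 hour, mortality at 24 and 48 hours, replicate means reported.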

[1] = test compound 0.2 ppm, after 24 hours, read-out: mortality % 24, without TFNA-AM
[2] = test compound 0.2 ppm, after 48 hours, read-out: mortality % 48, without TFNA-AM
[3] = test compound 2 ppm, after 24 hours, read-out: mortality % 24, without TFNA-AM
[4] = test compound 2 ppm, after 48 hours, read-out: mortality % 48, without TFNA-AM
[5] = test compound 20 ppm, after 24 hours, read-out: mortality % 24, without TFNA-AM
[6] = test compound 20 ppm, after 48 hours, read-out: mortality % 48, without TFNA-AM
[7] = test compound 200 ppm, after 24 hours, read-out: mortality % 24, without TFNA-AM
[8] = test compound 200 ppm, after 48 hours, read-out: mortality % 48, without TFNA-AM
[9] = test compound 200 ppm, adult females
[10] = test compound 0.2 ppm plus 2 ppm TFNA-AM, after 24 hours
[11] = test compound 0.2 ppm plus 2 ppm TFNA-AM
[12] = test compound 2 ppm plus 2 ppm TFNA-AM, after 48 hours
[13] = test compound 2 ppm plus 2 ppm TFNA-AM
[14] = test compound 20 ppm plus 2 ppm TFNA-AM, after 48 hours
[15] = test compound 20 ppm plus 2 ppm TFNA-AM
[16] = test compound 200 ppm plus 2 ppm TFNA-AM, after 24 hours
[17] = test compound 200 ppm plus 2 ppm TFNA-AM, after 48 hours
[18] = test compound 200 ppm plus 2 ppm TFNA-AM
[19] = test compound 0.2 ppm plus 2 ppm TFNA-AM, after 48 hours
[20] = test compound 2 ppm plus 2 ppm TFNA-AM, after 24 hours
[21] = test compound 20 ppm plus 2 ppm TFNA-AM, after 24 hours
[22] = test compound 0.2 ppm, after 24 hours
[23] = test compound 0.2 ppm, after 48 hours
[24] = test compound 2 ppm, after 24 hours
[25] = test compound 2 ppm, after 48 hours
[26] = test compound 20 ppm, after 24 hours
[27] = test compound 20 ppm, after 48 hours
[28] = test compound 200 ppm, after 24 hours
[29] = test compound 200 ppm, after 48 hours

| Compound | mortality % 24, with TFNA-AM [10] [%] | Knock Down, with TFNA-AM [11] [%] | mortality % 48, with TFNA-AM [12] [%] | Knock Down, with TFNA-AM [13] [%] | mortality % 48, with TFNA-AM [14] [%] | Knock Down, with TFNA-AM [15] [%] | mortality % 24, with TFNA-AM [16] [%] | mortality % 48, with TFNA-AM [17] [%] | Knock Down, with TFNA-AM [18] [%] | mortality % 48, with TFNA-AM [19] [%] | mortality % 24, with TFNA-AM [20] [%] | mortality % 24, with TFNA-AM [21] [%] | mortality % 24, without TFNA-AM [22] [%] | mortality % 48, without TFNA-AM [23] [%] | Knock Down, without TFNA-AM (test compound 0.2 ppm) [%] | mortality % 24, without TFNA-AM [24] [%] | mortality % 48, without TFNA-AM [25] [%] | Knock Down, without TFNA-AM (test compound 2 ppm) [%] | mortality % 24, without TFNA-AM [26] [%] | mortality % 48, without TFNA-AM [27] [%] | further results |
| --- | --- | --- | --- | --- | --- | --- | --- | --- | --- | --- | --- | --- | --- | --- | --- | --- | --- | --- | --- | --- | --- |
| CN1COCN(Cc2cnc(Cl)s2)/C1=N\[N+](=O)[O-] [Thiamethoxam] | 20 | 100 | 100 | 100 | 100 | 100 | 100 | 100 | 100 |  |  |  |  |  |  |  |  |  |  |  | mortality at 0.2 ppm [1]: 0%; mortality at 0.2 ppm [2]: 0%; pest or weed control at 0.2 ppm (test compound 0.2 ppm): 0%; mortality at 2 ppm [3]: 40%; mortality at 2 ppm [4]: 40%; pest or weed control at 2 ppm (test compound 2 ppm): 0%; mortality at 20 ppm [5]: 60%; mortality at 20 ppm [6]: 40%; pest or weed control at 20 ppm (test compound 20 ppm): 0%; mortality at 200 ppm [7]: 80%; mortality at 200 ppm [8]: 80%; pest or weed control at 200 ppm [9]: 0% |
| CON=C(C(=O)OC)c1ccccc1CON=C(C)c1cccc(C(F)(F)F)c1 [Trifloxystrobin] | 0 | 100 | 70 | 100 | 100 | 100 | 100 | 100 | 100 | 0 | 60 | 100 |  |  |  |  |  |  |  |  | mortality at 0.2 ppm [1]: 0%; mortality at 0.2 ppm [2]: 0%; pest or weed control at 0.2 ppm (test compound 0.2 ppm): 0%; mortality at 2 ppm [3]: 0%; mortality at 2 ppm [4]: 0%; pest or weed control at 2 ppm (test compound 2 ppm): 50%; mortality at 20 ppm [5]: 0%; mortality at 20 ppm [6]: 0%; pest or weed control at 20 ppm (test compound 20 ppm): 70%; mortality at 200 ppm [7]: 0%; mortality at 200 ppm [8]: 0%; pest or weed control at 200 ppm [9]: 80% |
| O=c1c(-c2cccc(C(F)(F)F)c2)c([O-])[n+](Cc2cncnc2)c2ccccn12 [Triflumizopyrim] | 0 | 100 | 50 | 100 | 100 | 100 | 100 | 100 | 100 | 0 | 50 | 90 | 0 | 0 | 0 | 0 | 0 | 0 | 0 | 10 | Knock Down, without TFNA-AM (test compound 20 ppm): 0%; mortality % 24, without TFNA-AM [28]: 40%; mortality % 48, without TFNA-AM [29]: 40%; Knock Down, without TFNA-AM [9]: 0% |
| Abamectin | 20 | 100 | 53 | 100 | 100 | 100 | 100 | 100 | 100 | 27 | 47 | 93 | 13 | 20 | 0 | 13 | 33 | 0 | 53 | 87 | Knock Down, without TFNA-AM (test compound 20 ppm): 7%; mortality % 24, without TFNA-AM [28]: 100%; mortality % 48, without TFNA-AM [29]: 100%; Knock Down, without TFNA-AM [9]: 47% |
| Emamectin benzoate | 30 | 100 | 60 | 100 | 100 | 100 | 100 | 100 | 100 | 20 | 60 | 100 | 0 | 0 | 0 | 0 | 10 | 0 | 40 | 90 | Knock Down, without TFNA-AM (test compound 20 ppm): 0%; mortality % 24, without TFNA-AM [28]: 40%; mortality % 48, without TFNA-AM [29]: 90%; Knock Down, without TFNA-AM [9]: 0% |
